Test results reported in paper PMC9516332 (Frontiers in Oncology, 2022).
Like-named read-outs stand apart in the source and are kept apart here.

Test system: 134 cancer cell lines
Test: Cell viability assay (ATPlite, 72 hours), IC50 on cancer cell line panel

Q: How did the IC50 (Homo sapiens, LS-411N, read-out: IC50 in cell proliferation assay) turn out when `Cn1cc(-c2cc3c(N4CCN(c5ncc([C@@](C)(N)c6ccc(F)cc6)cn5)CC4)ncnn3c2)cn1` [avapritinib] was run?
A: 10.8 µM

Q: What about the IC50 (Homo sapiens, LoVo, read-out: IC50 in cell proliferation assay) of the same compound?
A: 6.42 µM

Q: What about the IC50 (Homo sapiens, MCF7, read-out: IC50 in cell proliferation assay) of the same compound?
A: 17.3 µM

Q: And the IC50 (Homo sapiens, MDA-MB-231, read-out: IC50 in cell proliferation assay)?
A: 8.5 µM

Q: And the IC50 (Homo sapiens, MDA-MB-453, read-out: IC50 in cell proliferation assay)?
A: 1.08 µM

Q: And the IC50 (Homo sapiens, MDA-MB-468, read-out: IC50 in cell proliferation assay)?
A: 12.6 µM

Q: And the IC50 (Homo sapiens, MG-63, read-out: IC50 in cell proliferation assay)?
A: 11.1 µM

Q: And the IC50 (Homo sapiens, MIA PaCa-2, read-out: IC50 in cell proliferation assay)?
A: 11 µM

Q: And the IC50 (Homo sapiens, MKN-45, read-out: IC50 in cell proliferation assay)?
A: 5.03 µM

Q: And the IC50 (Homo sapiens, MOLM-13, read-out: IC50 in cell proliferation assay)?
A: 0.465 µM

Q: What about the IC50 (Homo sapiens, MOLT-4, read-out: IC50 in cell proliferation assay) of the same compound?
A: 6.63 µM

Q: And the IC50 (Homo sapiens, MV4-11, read-out: IC50 in cell proliferation assay)?
A: 0.47 µM

Q: What about the IC50 (Homo sapiens, MeWo, read-out: IC50 in cell proliferation assay) of the same compound?
A: > 31.6 µM

Q: And the IC50 (Homo sapiens, NCCIT, read-out: IC50 in cell proliferation assay)?
A: 3.52 µM

Q: And the IC50 (Homo sapiens, NCI-H82, read-out: IC50 in cell proliferation assay)?
A: 2.42 µM

Q: What about the IC50 (Homo sapiens, NCI-H460, read-out: IC50 in cell proliferation assay) of the same compound?
A: 16 µM

Q: And the IC50 (Homo sapiens, NCI-H661, read-out: IC50 in cell proliferation assay)?
A: 1.66 µM

Q: What about the IC50 (Homo sapiens, NCI-H716, read-out: IC50 in cell proliferation assay) of the same compound?
A: 6.81 µM

Q: And the IC50 (Homo sapiens, NCI-H1650, read-out: IC50 in cell proliferation assay)?
A: 19.6 µM

Q: And the IC50 (Homo sapiens, NCI-H1975, read-out: IC50 in cell proliferation assay)?
A: 11.1 µM

Q: And the IC50 (Homo sapiens, NCI-H2228, read-out: IC50 in cell proliferation assay)?
A: 9.99 µM

Q: And the IC50 (Homo sapiens, OVCAR-3, read-out: IC50 in cell proliferation assay)?
A: 22.1 µM

Q: And the IC50 (Homo sapiens, PFSK-1, read-out: IC50 in cell proliferation assay)?
A: 13.8 µM

Q: What about the IC50 (Homo sapiens, RL95-2, read-out: IC50 in cell proliferation assay) of the same compound?
A: 28.3 µM

Q: What about the IC50 (Homo sapiens, RPMI-7951, read-out: IC50 in cell proliferation assay) of the same compound?
A: 13.5 µM

Q: What about the IC50 (Homo sapiens, RS4-11, read-out: IC50 in cell proliferation assay) of the same compound?
A: 21 µM

Q: What about the IC50 (Homo sapiens, Rec1, read-out: IC50 in cell proliferation assay) of the same compound?
A: 28.9 µM

Q: And the IC50 (Homo sapiens, SHP77, read-out: IC50 in cell proliferation assay)?
A: 2.22 µM

Q: And the IC50 (Homo sapiens, SK-BR-3, read-out: IC50 in cell proliferation assay)?
A: 8.31 µM

Q: What about the IC50 (Homo sapiens, SK-N-AS, read-out: IC50 in cell proliferation assay) of the same compound?
A: 20.8 µM

Q: What about the IC50 (Homo sapiens, SK-N-FI, read-out: IC50 in cell proliferation assay) of the same compound?
A: > 31.6 µM

Q: What about the IC50 (Homo sapiens, SK-N-MC, read-out: IC50 in cell proliferation assay) of the same compound?
A: 6.43 µM

Q: What about the IC50 (Homo sapiens, SK-N-SH, read-out: IC50 in cell proliferation assay) of the same compound?
A: 7.42 µM

Q: And the IC50 (Homo sapiens, SNU-5, read-out: IC50 in cell proliferation assay)?
A: 9.36 µM

Q: And the IC50 (Homo sapiens, SNU-16, read-out: IC50 in cell proliferation assay)?
A: 2.03 µM

Q: And the IC50 (Homo sapiens, SNU-C2B, read-out: IC50 in cell proliferation assay)?
A: 10.5 µM

Q: And the IC50 (Homo sapiens, SU-DHL-1, read-out: IC50 in cell proliferation assay)?
A: 2.31 µM

Q: What about the IC50 (Homo sapiens, SU-DHL-6, read-out: IC50 in cell proliferation assay) of the same compound?
A: 3.18 µM

Q: And the IC50 (Homo sapiens, SUP-T1, read-out: IC50 in cell proliferation assay)?
A: 9.11 µM

Q: What about the IC50 (Homo sapiens, SW48, read-out: IC50 in cell proliferation assay) of the same compound?
A: 5.58 µM

Q: And the IC50 (Homo sapiens, SW480, read-out: IC50 in cell proliferation assay)?
A: 25.4 µM

Q: What about the IC50 (Homo sapiens, SW626, read-out: IC50 in cell proliferation assay) of the same compound?
A: 20.2 µM

Q: And the IC50 (Homo sapiens, SW780, read-out: IC50 in cell proliferation assay)?
A: 19.3 µM

Q: And the IC50 (Homo sapiens, SW837, read-out: IC50 in cell proliferation assay)?
A: > 31.6 µM

Q: What about the IC50 (Homo sapiens, SW872, read-out: IC50 in cell proliferation assay) of the same compound?
A: 6.31 µM

Q: And the IC50 (Homo sapiens, SW900, read-out: IC50 in cell proliferation assay)?
A: 21.9 µM

Q: And the IC50 (Homo sapiens, SW948, read-out: IC50 in cell proliferation assay)?
A: 14 µM

Q: And the IC50 (Homo sapiens, SW982, read-out: IC50 in cell proliferation assay)?
A: 10.8 µM

Q: And the IC50 (Homo sapiens, SW-620, read-out: IC50 in cell proliferation assay)?
A: > 31.6 µM

Q: And the IC50 (Homo sapiens, T98G, read-out: IC50 in cell proliferation assay)?
A: 0.372 µM

Q: And the IC50 (Homo sapiens, TCC-SUP, read-out: IC50 in cell proliferation assay)?
A: 2.7 µM

Q: What about the IC50 (Homo sapiens, THP-1, read-out: IC50 in cell proliferation assay) of the same compound?
A: 5.42 µM

Q: What about the IC50 (Homo sapiens, U2OS, read-out: IC50 in cell proliferation assay) of the same compound?
A: 16.3 µM

Q: What about the IC50 (Homo sapiens, U-87 MG, read-out: IC50 in cell proliferation assay) of the same compound?
A: 22.9 µM

Q: What about the IC50 (Homo sapiens, U-118-MG, read-out: IC50 in cell proliferation assay) of the same compound?
A: 1.1 µM

Q: And the IC50 (Homo sapiens, UMUC3, read-out: IC50 in cell proliferation assay)?
A: 5.49 µM

Q: What about the IC50 (Hs766T, read-out: IC50 in cell proliferation assay) of the same compound?
A: > 31.6 µM

Q: And the IC50 (L-82, read-out: IC50 in cell proliferation assay)?
A: 8.39 µM

Q: What about the IC50 (Rh30, read-out: IC50 in cell proliferation assay) of the same compound?
A: 14.9 µM
